Assay results reported in the supplement of paper PMC10307832.

Legend:
Test in all cases: relative viability (nuclei count vs DMSO), 5 days (fraction); higher = more cells survive
4EGI-1 + OSI-027 = compound: O=C(O)C(Cc1ccccc1[N+](=O)[O-])=NNc1nc(-c2ccc(Cl)c(Cl)c2)cs1 (mixture of isomers) [4EGI-1] + COc1cccc2cc(-c3nc([C@H]4CC[C@H](C(=O)O)CC4)n4ncnc(N)c34)[nH]c12 [OSI-027] (partner 0.5 µM)
How it was run: (§1)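 For relative viability, nuclei counts in treated wells were divided by those in vehicle wells. Lung cancer cell lines had been pin-tool dosed in 1536-well plates the day after seeding and cultured for 5 days, then fixed and stained in one step (final 0.05% Triton X-100, 1% formaldehyde, 1 ug/ml Hoechst) and imaged at 4×. Doses were one drug alone or a fixed anchor-drug dose plus five library-drug doses (not always all listed) in √10 steps, and values are duplicate-plate medians.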

4EGI-1 + Pemetrexed = compound: O=C(O)C(Cc1ccccc1[N+](=O)[O-])=NNc1nc(-c2ccc(Cl)c(Cl)c2)cs1 (mixture of isomers) [4EGI-1] + Nc1nc2[nH]cc(CCc3ccc(C(=O)N[C@@H](CCC(=O)O)C(=O)O)cc3)c2c(=O)[nH]1 [Pemetrexed] (partner 0.2 µM)
How it was run: as §1

XMD8-85 + Foretinib = compound: CN1CCN(CC1)C2=CC(=C(C=C2)NC3=NC=C4C(=N3)N(C5=CC=CC=C5C(=O)N4C)C)OC [XMD8-85] + COc1cc2c(Oc3ccc(NC(=O)C4(C(=O)Nc5ccc(F)cc5)CC4)cc3F)ccnc2cc1OCCCN1CCOCC1 [Foretinib] (partner 0.25 µM)
How it was run: as §1

4EGI-1 + Lapatinib = compound: O=C(O)C(Cc1ccccc1[N+](=O)[O-])=NNc1nc(-c2ccc(Cl)c(Cl)c2)cs1 (mixture of isomers) [4EGI-1] + CS(=O)(=O)CCNCc1ccc(-c2ccc3ncnc(Nc4ccc(OCc5cccc(F)c5)c(Cl)c4)c3c2)o1 [Lapatinib] (partner 2 µM)
How it was run: as §1

Cell Line	relative viability (4EGI-1 + OSI-027; first compound 0.5 µM)	relative viability (4EGI-1 + OSI-027; first compound 5 µM)	relative viability (4EGI-1 + OSI-027; first compound 15.81 µM)	relative viability (4EGI-1 + OSI-027; first compound 50 µM)	relative viability (4EGI-1 + Pemetrexed; first compound 0.5 µM)	relative viability (4EGI-1 + Pemetrexed; first compound 5 µM)	relative viability (4EGI-1 + Pemetrexed; first compound 15.81 µM)	relative viability (4EGI-1 + Pemetrexed; first compound 50 µM)	relative viability (XMD8-85 + Foretinib; first compound 0.08 µM)	relative viability (XMD8-85 + Foretinib; first compound 0.253 µM)	relative viability (XMD8-85 + Foretinib; first compound 0.8 µM)	relative viability (XMD8-85 + Foretinib; first compound 2.53 µM)	relative viability (XMD8-85 + Foretinib; first compound 8 µM)	relative viability (4EGI-1 + Lapatinib; first compound 0.5 µM)	relative viability (4EGI-1 + Lapatinib; first compound 1.581 µM)	relative viability (4EGI-1 + Lapatinib; first compound 5 µM)	relative viability (4EGI-1 + Lapatinib; first compound 50 µM)	relative viability (4EGI-1 + OSI-027; first compound 1.581 µM)	relative viability (4EGI-1 + Pemetrexed; first compound 1.581 µM)	relative viability (4EGI-1 + Lapatinib; first compound 15.81 µM)
PC-14	1.21	1.15	0.14	0.0614	0.135	0.159	0.185	0.0861	0.953	0.826	0.881	1.03	0.851	0.355	0.353	0.371	0.296	–	–	–
NCI-H520	0.262	0.314	0.345	0.179	0.674	0.677	0.655	0.123	0.798	0.729	0.895	0.741	0.484	0.98	0.882	0.963	0.144	0.325	0.704	0.738
NCI-H2342	0.596	0.62	0.625	0.517	0.884	0.813	0.978	0.702	0.993	0.938	1.15	0.971	0.946	–	–	–	–	0.644	0.723	–
NCI-H3122	1.27	1.04	0.862	0.235	0.196	0.189	0.224	0.175	1.04	–	1.07	1.04	0.947	1.05	0.922	1.02	0.578	–	0.192	0.955
HCC-78	0.356	0.38	0.34	0.362	0.911	0.916	0.892	0.972	0.539	0.572	0.519	0.537	0.531	0.842	0.551	0.752	0.947	–	–	0.788
SW 1573	0.884	0.703	0.284	0.11	0.963	0.794	0.329	0.126	0.876	0.884	0.854	1	0.762	1.33	0.86	1.17	1.17	0.431	0.742	0.898
RERF-LC-KJ	0.665	0.529	0.413	0.296	0.51	0.444	0.457	0.431	0.84	0.762	0.877	0.877	0.849	0.93	0.677	0.808	0.644	–	0.351	0.64
SK-MES-1	0.704	0.611	0.548	0.199	0.979	0.968	0.751	0.24	0.888	0.712	0.875	1	0.57	0.51	0.419	0.479	0.395	0.523	0.713	0.459
NCI-H1993	0.495	0.627	0.611	0.577	0.529	0.541	0.518	0.481	0.742	0.894	0.806	0.706	0.61	0.945	0.718	0.838	0.767	0.528	0.569	0.693
NCI-H1915	0.623	0.625	0.617	0.287	0.513	0.451	0.488	0.263	1.16	1.1	1.16	1.02	0.83	0.99	0.747	0.954	0.679	0.448	0.407	1.03
NCI-H1650	0.705	0.681	0.263	0.173	0.369	0.412	0.356	0.313	1.12	1.19	1.17	0.863	0.32	0.953	–	0.825	0.256	–	–	0.374
HCC-44	0.483	0.41	0.404	0.175	0.609	0.549	0.584	0.593	–	–	–	–	–	0.985	0.802	0.929	0.366	–	0.634	0.809
NCI-H2170	0.785	0.713	0.558	0.391	0.259	0.247	0.256	0.265	1.04	1.01	0.985	1.02	0.965	0.32	0.266	0.289	0.235	0.63	0.256	0.264
NCI-H1975	0.837	0.792	0.74	0.391	0.298	0.287	0.283	0.21	1.05	0.925	0.917	0.779	0.561	1.05	0.916	0.916	0.287	0.665	0.274	0.93
HCC-827	0.888	0.796	–	0.719	0.27	0.269	–	0.228	1.03	1.1	0.948	1.13	1.11	0.197	0.201	0.15	0.168	0.629	0.232	–
NCI-H2347	0.404	0.475	0.389	0.405	0.438	0.452	0.414	0.413	0.75	0.836	0.829	1.07	0.758	0.898	0.746	0.909	0.844	–	0.407	0.855
NCI-H1437	0.945	0.886	0.743	0.256	0.335	0.313	0.271	0.191	1.3	1.28	1.32	1.08	0.867	0.914	0.861	0.671	0.127	0.853	0.312	0.184
